Experimental findings from patent publication US20260200939A1, “MOLECULAR GLUE DEGRADER COMPOUNDS AND USES THEREOF” (Novartis AG, priority 2022, published 2026) are described below.

Test [1] has as its target T1, cysteine 32 (C32) on the RING-family E3 ubiquitin ligase RNF126 (Homo sapiens, UniProt Q9BV68).
T1 construct: endogenous in cells; host or cells: C33A
As to the kind of experiment: isoTOP-ABPP chemoproteomic profiling in C33A cells. The test is classed as cell-based. As to conditions: C33A cells treated in situ. The protocol:
IsoTOP-ABPP studies were done as previously reported (Weerapana, E. et al. Nature 468, 790-795 (2010); Spradlin, J. N. et al. Nat. Chem. Biol. 15, 747-755 (2019); Grossman, E. A. et al. Cell Chem. Biol. 24, 1368-1376.e4 (2017)). All of the isoTOP-ABPP datasets were prepared as described below using the IA-alkyne probe. Cells were lysed by probe sonication in PBS and protein concentrations were measured by BCA assay. Cells were treated for 2 h with either DMSO vehicle or compound before cell collection and lysis. Proteomes were subsequently labeled with IA-alkyne labeling (200 μM) for 1 h at room temperature. CuAAC was used by sequential addition of tris(2-carboxyethyl)phosphine (1 mM, Strem, 15-7400), tris[(1-benzyl-1H-1,2,3-triazol-4-yl)methyl]amine (34 μM, Sigma, 678937), copper(II) sulfate (1 mM, Sigma, 451657) and biotin-linker-azide—the linker functionalized with a tobacco etch virus (TEV) protease recognition sequence as well as an isotopically light or heavy valine for treatment of control or treated proteome, respectively. After CuAAC, proteomes were precipitated by centrifugation at 6,500 g, washed in ice-cold methanol, combined in a 1:1 control:treated ratio, washed again, then denatured and resolubilized by heating in 1.2% SDS-PBS to 90° C. for 5 min. Insoluble components were precipitated by centrifugation at 6,500 g and soluble proteome was diluted in 5 ml 0.2% SDS-PBS. […]

Test [2] concerns the target T2, CDK4 (Homo sapiens, UniProt P11802).
T2 construct: endogenous in cells; host or cells: C33A
As to the kind of experiment: RNF126 knockdown study of CDK4 degradation in C33A cells. Type of test: cell-based. The protocol: (§1) Proteins were resolved by SDS/PAGE and transferred to nitrocellulose membranes using the Trans-Blot Turbo transfer system (Bio-Rad). Membranes were blocked with 5% BSA in Tris-buffered saline containing Tween 20 (TBS-T) solution for 30 min at RT, washed in TBS-T, and probed with primary antibody diluted in recommended diluent per manufacturer overnight at 4° C. After 3 washes with TBS-T, the membranes were incubated in the dark with IR680- or IR800-conjugated secondary antibodies at 1:10,000 dilution in 5% BSA in TBS-T at RT for 1 h. After 3 additional washes with TBST, blots were visualized using an Odyssey Li-Cor fluorescent scanner. The membranes were stripped using ReBlot Plus Strong Antibody Stripping Solution (EMD Millipore) when additional primary antibody incubations were performed. Antibodies used in this study were CDK4 (Abcam ab108357), Vinculin (Abcam ab129002), GAPDH (Cell Signaling Technology 14C10), RNF126 (Santa Cruz Biotechnology sc-376005), BRD4 (Abcam ab128874), Beta Actin (Cell Signaling Technology 13E5), PDE5 (Abcam ab259945), AR-V7 (Abcam ab273500), c-Abl (Santa Cruz Biotechnology sc-23), SMARCA2 (Abcam ab240648), LRRK2 (Abcam ab133474), BTK (Cell Signaling Technology D3H5), Androgen Receptor (Abcam ab133273).
Short-hairpin oligonucleotides were used to knock down the expression of RNF126 in C33A cells. […]

The next test addresses T3, Recombinant RNF126 (Homo sapiens, UniProt Q9BV68).
T3 construct: FLAG (C); host or cells: HEK293T
Nature of the test: RNF126 Binding Assay, gel-based ABPP. The method in brief:
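FLAG-tagged human RNF126, expressed in HEK293T and purified on anti-FLAG resin, was pretreated with DMSO or covalent ligand for 30 min at 37 °C in PBS. IA-rhodamine was then added for 1 h at RT in the dark. Probe labelling was read by SDS-PAGE in-gel fluorescence.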

In another test the target is T4, pure RNF126 protein (Homo sapiens, UniProt Q9BV68).
T4 construct: FLAG (C); host or cells: HEK293T
As to the kind of experiment: Mass spectrometry analysis of compound-labeled RNF126 tryptic digests. The test is classed as binding.

Test [3] addresses T2, CDK4. Nature of the test: CDK4 Degradation Assay, Western blotting. Type of test: cell-based. The note with it: C33A cells, immunoblot. An outline of the steps: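 Cell lines were grown at 37° C with 5% CO2 (HEK293T and C33A in DMEM, A549 in F-12K, 22RV1, LNCaP and Mino in RPMI-1640, K562 and MV-4-11 in IMDM, all with 10% FBS). Lysates were BCA-normalized, then SDS/PAGE Western blots were probed with target-specific antibodies and read by IR680/IR800 fluorescent secondaries on Li-Cor.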
(In general: In western blotting, separated proteins are transferred to a membrane and probed.)

The next test has as its target T5, SMARCA2 (Homo sapiens, UniProt P51531).
T5 construct: endogenous in cells; host or cells: MV-4-11
Nature of the test: SMARCA2 Degradation assay, Western blotting. The test is classed as cell-based. The protocol:
(§2) C33A cells were purchased from American Type Culture Collection (ATCC) and were cultured in Dulbecco's Modified Eagle Medium (DMEM) containing 10% (v/v) fetal bovine serum (FBS) and maintained at 37° C. with 5% CO2. 22RV1 cells were purchased from the ATCC and were cultured in RPMI-1640 Medium containing 10% (v/v) FBS and maintained at 37° C. with 5% CO2. HEK293T cells were obtained from the UC Berkeley Cell Culture Facility and were cultured in DMEM containing 10% (v/v) FBS and maintained at 37° C. with 5% CO2. K562 cells were obtained from the UC Berkeley Cell Culture Facility and were cultured in Iscove's Modified Dulbecco's Medium (IMDM) containing 10% (v/v) FBS and maintained at 37° C. with 5% CO2. MV-4-11 cells were obtained from the ATCC and were cultured in IMDM containing 10% (v/v) FBS and maintained at 37° C. with 5% CO2. A549 cells were obtained from the ATCC and were cultured in F-12K Medium containing 10% (v/v) FBS and maintained at 37° C. with 5% CO2. Mino cells were obtained from the ATCC and were cultured in RPMI-1640 Medium containing 10% (v/v) FBS and maintained at 37° C. with 5% CO2. LNCaP cells were obtained from the ATCC and were cultured in RPMI-1640 Medium containing 10% (v/v) FBS and maintained at 37° C. with 5% CO2. Unless otherwise specified, all cell culture materials were purchased from Gibco. It is not known whether HEK293T cells are from male or female origin.
(§3) Cells were washed twice with cold PBS, scraped, and pelleted by centrifugation (700 g, 5 min, 4° C.). Pellets were resuspended in PBS, sonicated, clarified by centrifugation (12,000 g, 10 min, 4° C.), and lysate was transferred to new low-adhesion microcentrifuge tubes. Proteome concentrations were determined using BCA assay and lysate was diluted to appropriate working concentrations.
Proteins were resolved by SDS/PAGE and transferred to nitrocellulose membranes using the Trans-Blot Turbo transfer system (Bio-Rad). […]

A further test has as its target T6, AR-V7 (Homo sapiens, UniProt P10275).
T6 construct: endogenous in cells; host or cells: 22RV1 and/or LNCaP
T6 sequence (P10275 1-644 isoform P10275-3): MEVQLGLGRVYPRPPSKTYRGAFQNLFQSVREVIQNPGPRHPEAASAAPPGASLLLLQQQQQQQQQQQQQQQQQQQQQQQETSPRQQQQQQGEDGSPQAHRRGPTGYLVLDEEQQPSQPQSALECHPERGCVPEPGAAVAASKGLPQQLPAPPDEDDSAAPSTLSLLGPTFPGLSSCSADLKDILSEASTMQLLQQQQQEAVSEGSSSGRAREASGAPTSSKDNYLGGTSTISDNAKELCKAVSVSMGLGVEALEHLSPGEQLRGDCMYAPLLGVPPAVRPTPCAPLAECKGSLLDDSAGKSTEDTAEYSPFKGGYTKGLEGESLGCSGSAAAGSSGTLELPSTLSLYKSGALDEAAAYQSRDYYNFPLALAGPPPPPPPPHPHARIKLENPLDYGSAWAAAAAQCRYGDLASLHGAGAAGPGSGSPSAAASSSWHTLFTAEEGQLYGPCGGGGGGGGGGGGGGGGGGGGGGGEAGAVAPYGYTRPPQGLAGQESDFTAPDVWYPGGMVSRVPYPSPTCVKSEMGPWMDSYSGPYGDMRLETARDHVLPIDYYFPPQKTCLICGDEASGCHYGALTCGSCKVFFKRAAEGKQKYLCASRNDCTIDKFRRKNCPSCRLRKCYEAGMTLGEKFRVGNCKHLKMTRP
As to the kind of experiment: AR-V7 degradation in prostate cancer cells, Western blotting. The test is classed as cell-based. As to conditions: LNCaP and 22RV1 prostate cancer cells. The protocol:
as §2, with “LNCaP cells were obtained from the ATCC and were cultured in RPMI-1640 Medium containing 10% (v/v) FBS and maintained at 37° C. with 5% CO2. Unless otherwise specified, all cell culture materials were purchased from Gibco. It is not known whether HEK293T cells are from male or female origin.” left out
Cells were washed twice with cold PBS, scraped, and pelleted by centrifugation (700 g, 5 min, 4° C.). […] Proteome concentrations were determined using BCA assay and lysate was diluted to appropriate working concentrations. […]

A further test deals with Androgen Receptor. As to the kind of experiment: Androgen Receptor Degradation assay, Western blotting. The test is classed as cell-based. The note with it: LNCaP and 22RV1 prostate cancer cells. The protocol: as §2, §3, §1

The DC50 is the midpoint of the concentration-degradation curve.

T3 sequence (Q9BV68 whole entry): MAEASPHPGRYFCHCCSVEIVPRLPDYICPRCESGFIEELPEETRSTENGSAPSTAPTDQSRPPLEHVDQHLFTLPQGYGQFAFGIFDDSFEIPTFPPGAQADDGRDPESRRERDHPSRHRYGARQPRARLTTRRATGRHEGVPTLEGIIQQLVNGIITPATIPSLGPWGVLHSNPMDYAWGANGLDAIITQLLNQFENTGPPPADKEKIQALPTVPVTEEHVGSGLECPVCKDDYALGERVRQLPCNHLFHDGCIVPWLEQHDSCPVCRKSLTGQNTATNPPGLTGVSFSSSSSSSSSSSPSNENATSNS
T4 sequence (Q9BV68 whole entry): as above
T5 sequence (P51531 whole entry): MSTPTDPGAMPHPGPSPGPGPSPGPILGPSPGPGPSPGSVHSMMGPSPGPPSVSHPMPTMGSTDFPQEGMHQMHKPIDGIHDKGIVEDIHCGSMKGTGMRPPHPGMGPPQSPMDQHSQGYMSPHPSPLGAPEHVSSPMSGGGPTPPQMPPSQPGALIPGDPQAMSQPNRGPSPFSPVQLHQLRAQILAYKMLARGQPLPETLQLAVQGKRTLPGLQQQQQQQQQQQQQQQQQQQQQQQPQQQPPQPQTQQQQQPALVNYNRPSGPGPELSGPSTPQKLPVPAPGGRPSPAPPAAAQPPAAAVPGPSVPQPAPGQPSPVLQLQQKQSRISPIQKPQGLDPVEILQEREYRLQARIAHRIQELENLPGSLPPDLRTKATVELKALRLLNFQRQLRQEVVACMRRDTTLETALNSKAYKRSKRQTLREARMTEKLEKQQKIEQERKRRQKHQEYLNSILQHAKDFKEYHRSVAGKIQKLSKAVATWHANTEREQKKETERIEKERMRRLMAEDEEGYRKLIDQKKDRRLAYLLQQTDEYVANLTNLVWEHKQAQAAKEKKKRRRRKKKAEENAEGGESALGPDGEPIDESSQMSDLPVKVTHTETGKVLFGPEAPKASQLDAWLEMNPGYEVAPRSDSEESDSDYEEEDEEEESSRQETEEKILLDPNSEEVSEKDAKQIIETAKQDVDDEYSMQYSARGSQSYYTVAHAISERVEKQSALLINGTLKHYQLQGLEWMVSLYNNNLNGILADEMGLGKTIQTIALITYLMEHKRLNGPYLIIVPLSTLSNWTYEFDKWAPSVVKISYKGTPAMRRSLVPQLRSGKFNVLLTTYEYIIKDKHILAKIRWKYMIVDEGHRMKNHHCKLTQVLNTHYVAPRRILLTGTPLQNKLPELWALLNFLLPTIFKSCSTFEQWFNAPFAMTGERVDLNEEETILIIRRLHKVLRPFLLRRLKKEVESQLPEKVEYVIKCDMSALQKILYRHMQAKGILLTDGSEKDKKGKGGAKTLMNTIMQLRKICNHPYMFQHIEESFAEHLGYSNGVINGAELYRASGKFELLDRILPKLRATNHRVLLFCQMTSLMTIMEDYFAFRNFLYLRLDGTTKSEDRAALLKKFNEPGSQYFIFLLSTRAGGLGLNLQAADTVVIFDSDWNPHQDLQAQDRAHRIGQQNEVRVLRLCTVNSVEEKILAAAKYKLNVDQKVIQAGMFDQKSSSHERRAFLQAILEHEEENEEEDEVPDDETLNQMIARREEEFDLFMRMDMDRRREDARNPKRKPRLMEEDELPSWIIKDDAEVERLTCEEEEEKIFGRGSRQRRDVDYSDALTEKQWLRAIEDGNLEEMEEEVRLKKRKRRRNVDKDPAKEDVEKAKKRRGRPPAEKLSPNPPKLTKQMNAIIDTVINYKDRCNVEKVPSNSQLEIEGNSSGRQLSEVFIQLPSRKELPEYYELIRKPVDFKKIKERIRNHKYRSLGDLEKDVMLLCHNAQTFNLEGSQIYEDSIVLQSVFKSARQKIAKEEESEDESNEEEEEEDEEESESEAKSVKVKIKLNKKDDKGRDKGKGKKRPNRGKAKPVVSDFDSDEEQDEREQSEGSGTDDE

Take `CN(C)C(=O)c1cc2cnc(Nc3ccc(N4CCN(C(=O)/C=C/c5ccc(C(F)(F)F)cc5)CC4)cn3)nc2n1C1CCCC1` [Compound 106]: the “cysteine engaged across the proteome (isoTOP-ABPP)” value in test [1] is listed as “covalently binds to cysteine 32 (C32)”. Further, on CDK4 [2], the “effect of RNF126 knockdown on compound-mediated CDK4 degradation” value is given as “completely attenuated”. Besides, the “binding to RNF126 (gel-based ABPP), in words” value (“binding to RNF126” below) at Recombinant RNF126 is reported as “confirms the interaction of Compound 106 with RNF126”. On pure RNF126 protein, the “adduct on RNF126 by mass spectrometry of tryptic digests” value was “mass adduct of Compound 106 on pure RNF126 protein is observed”.

With `COc1ccc(C(=O)/C=C/C(=O)N2CCN(c3ccc(Nc4ncc5cc(C(=O)N(C)C)n(C6CCCC6)c5n4)nc3)CC2)cc1` [Compound 113, (E)-7-cyclopentyl-2-((5-(4-(4-(4-methoxyphenyl)-4-oxobut-2-enoyl)piperazin-1-yl)pyridin-2-yl)-amino)-N,N-dimethyl-7H-pyrrolo[2,3-d]pyrimidine-6-carboxamide], on CDK4 [3], the “CDK4 degradation, in words” value is reported as “in a dose-responsive manner”. For the same compound, the “adduct on RNF126 by mass spectrometry of tryptic digests” value on pure RNF126 protein is listed as “reacts with C32 of RNF126”.

With `COc1ccc(C(=O)/C=C/C(=O)N2CCN(c3cc(-c4ccccc4O)nnc3N)CC2)cc1` [Compound 128], the “degradation of SMARCA2, in words” value at SMARCA2 (MV-4-11 leukemia cancer cells) is reported as “degradation of SMARCA2 in MV-4-11 leukemia cancer cells cell in a dose-responsive manner”. For the same compound, the “binding to RNF126” value on Recombinant RNF126 is “potent binding”.

With `COc1ccc(C(=O)/C=C/C(=O)N2CCN(C(=O)COc3ccc(-c4csc(N5CCOCC5)n4)cc3)CC2)cc1` [Compound 132], the “degradation of AR-V7, in words” value on AR-V7 is “degradation of AR and AR-V7”. The “degradation of AR, in words” value in the test with Androgen Receptor was “degradation of AR and AR-V7”. For the same compound, the “binding to RNF126” value at Recombinant RNF126 was “potent binding”.

On to `COc1ccc(C(=O)/C=C/C(=O)N2CCN(c3ccc(-c4csc(N5CCOCC5)n4)cc3)CC2)cc1` [Compound 133], for which the “degradation of AR-V7, in words” value on AR-V7 was “degradation of AR and AR-V7”. The “degradation of AR, in words” value with Androgen Receptor is “degradation of AR and AR-V7”. Besides, the “binding to RNF126” value at Recombinant RNF126 is given as “potent binding”.

With `COc1ccc(C(=O)/C=C/C(=O)N[C@H]2C[C@H](NC(=O)CN3CCN(c4cc(-c5ccccc5O)nnc4N)CC3)C2)cc1` [Compound 283, (E)-N-((1r,3r)-3-(2-(4-(3-amino-6-(2-hydroxyphenyl)pyridazin-4-yl)piperazin-1-yl)acetamido)cyclobutyl)-4-(4-methoxyphenyl)-4-oxobut-2-enamide], the DC50 at SMARCA2 was > 5 µM.
